“And” between values parts separate entries of the source, which are not always exact repeats. Equal values may be shown once. *1 amine or outer side, *2 acyl side, *3 side chain or, on linkers, in order; H or OH if unused. Where a SMILES comes first, the peptide text is derived from it. Where no end group is shown, it is not given here. [ ]: non-standard residue; d: D form. The star is where a group is joined. ξ: configuration not given here. ξ3Amino2oxobutanoyl = CC(N[*:1])C(=O)C(=O)[*:2]; Abu(ψCOCO) = CC[C@H](N[*:1])C(=O)C(=O)[*:2]; AMC = Cc1cc(=O)oc2cc(N*)ccc12; βAla = NCCC(=O)O; NHcPr = C1CC1N*

Assay [1] has as its target T1, rPfSUB1cat (Plasmodium falciparum, UniProt Q8I0V0).
T1 construct: core domain (rPfSUB1cat) comprising Ser328 to Tyr671; made in house; host or cells: baculovirus-infected insect cells (Tn5), then limited chymotrypsin digestion
As to the kind of experiment: Cleavage of unlabelled and AMC peptide substrates by rPfSUB1cat (RP-HPLC). The settings on record: for hydrolysis by rPfSUB1cat: prolonged incubations, data not shown; for reduction of substrate peak intensity: by 120 min digestion of equimolar mixture, RP-HPLC. The format is biochemical. From the text:
(SERA4st1F-6R12); Ac-CITAQDDEEC (called SERA4st1F-6R); and Ac-[…] (SERA4st1F-6R-S). […] Initial hydrolysis rates were then plotted against inhibitor concentration.
In a third approach to investigating the role of prime side interactions in PfSUB1–substrate recognition, we produced a modified form of the SERA4st1 peptide substrate (called SERA4st1-ADA) in which both the P1′ and P3′ residues were replaced by Ala. Based on our MD data, these substitutions would be predicted to abolish potentially important stabilizing interactions with the S′ surface of the enzyme. To compare cleavage efficiencies of SERA4st1 and SERA4st1-ADA, we used a previously-described method in which an equimolar mixture of the two peptides was supplemented with rPfSUB1cat and the rates of peptide hydrolysis established by RP-HPLC analysis of the resulting digestion products ([Child et al., 2010]). Under such conditions, because the peptides effectively act as competing substrates, their relative initial rates of hydrolysis are solely a function of the ability of PfSUB1 to discriminate between them, and so are directly proportional to their relative kcat/Km values, irrespective of their concentration ([Cornish-Bowden, 2004]).

Assay [2] has as its target rPfSUB1cat (recombinant P. falciparum SUB1 catalytic domain) (Plasmodium falciparum, UniProt Q8I0V0). As to the kind of experiment: biochemical. The settings on record: for IC50: IC50 for steady-state inhibition of rPfSUB1cat, dose-response, substrate 0.1 μM.
The target of assay [3] is T2, rPvSUB1 (Plasmodium vivax, UniProt E6Y8B9).
T2 construct: 6-His (C); made in house; host or cells: baculovirus-infected insect cells (Tn5), then limited chymotrypsin digestion
T2 sequence (E6Y8B9 287-604): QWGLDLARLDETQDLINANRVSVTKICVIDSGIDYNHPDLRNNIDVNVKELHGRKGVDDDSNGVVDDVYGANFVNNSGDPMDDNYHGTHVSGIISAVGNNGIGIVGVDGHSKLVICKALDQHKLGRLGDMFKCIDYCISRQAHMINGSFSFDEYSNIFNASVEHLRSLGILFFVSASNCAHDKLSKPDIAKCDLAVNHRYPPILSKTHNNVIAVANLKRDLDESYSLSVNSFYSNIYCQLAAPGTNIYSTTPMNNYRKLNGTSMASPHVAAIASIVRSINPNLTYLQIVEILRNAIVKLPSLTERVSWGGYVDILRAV
As to the kind of experiment: biochemical. The settings on record: IC50 against rPvSUB1, dose-response. An excerpt: (§1) Initial hydrolysis rates were then plotted against inhibitor concentration.

Assay [4] addresses T3, PbSUB1 (Plasmodium berghei, UniProt A0A509AM03).
T3 construct: recombinant Plasmodium falciparum SUB1 catalytic domain (rPfSUB1cat; closed circles) and rPbSUB1cat (closed triangles); 6-His (C); made in house; host or cells: baculovirus-infected insect cells (Tn5), then limited chymotrypsin digestion
As to the kind of experiment: biochemical.
Text: as §1

The subject of assay [5] is PfSUB1. As to conditions: cited from earlier work.
Assay [6] deals with rPbSUB1cat. As to conditions: substrates 0.1 μM.
Text: as §1

The target in assay [7] is T1, rPfSUB1cat. Type of assay: biochemical. As to conditions: substrates 0.1 μM.
Text: as §1

In assay [8] the target is T4, rPbSUB1 (Plasmodium berghei, UniProt A0A509AM03).
T4 construct: recombinant Plasmodium falciparum SUB1 catalytic domain (rPfSUB1cat; closed circles) and rPbSUB1cat (closed triangles); 6-His (C); made in house; host or cells: baculovirus-infected insect cells (Tn5), then limited chymotrypsin digestion
T4 sequence (A0A509AM03 257-574): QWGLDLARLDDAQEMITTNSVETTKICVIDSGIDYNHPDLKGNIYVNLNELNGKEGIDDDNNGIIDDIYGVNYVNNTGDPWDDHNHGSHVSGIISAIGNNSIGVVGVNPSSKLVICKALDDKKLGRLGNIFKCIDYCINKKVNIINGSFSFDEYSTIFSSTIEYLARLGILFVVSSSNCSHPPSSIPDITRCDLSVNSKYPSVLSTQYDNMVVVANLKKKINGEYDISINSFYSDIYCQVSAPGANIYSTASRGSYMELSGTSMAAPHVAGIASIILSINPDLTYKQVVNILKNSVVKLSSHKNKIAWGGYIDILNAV
Kind of assay: Cleavage of unlabelled N-acetylated decapeptides by rPbSUB1 (RP-HPLC). Type of assay: biochemical. As to conditions: RP-HPLC examination of digestion products.

For assay [9], the target named is T5, recombinant Plasmodium falciparum subtilisin-like protease 1 (rPfSUB1), p54/p47 protease species (Plasmodium falciparum, UniProt O61142 218-690).
T5 sequence: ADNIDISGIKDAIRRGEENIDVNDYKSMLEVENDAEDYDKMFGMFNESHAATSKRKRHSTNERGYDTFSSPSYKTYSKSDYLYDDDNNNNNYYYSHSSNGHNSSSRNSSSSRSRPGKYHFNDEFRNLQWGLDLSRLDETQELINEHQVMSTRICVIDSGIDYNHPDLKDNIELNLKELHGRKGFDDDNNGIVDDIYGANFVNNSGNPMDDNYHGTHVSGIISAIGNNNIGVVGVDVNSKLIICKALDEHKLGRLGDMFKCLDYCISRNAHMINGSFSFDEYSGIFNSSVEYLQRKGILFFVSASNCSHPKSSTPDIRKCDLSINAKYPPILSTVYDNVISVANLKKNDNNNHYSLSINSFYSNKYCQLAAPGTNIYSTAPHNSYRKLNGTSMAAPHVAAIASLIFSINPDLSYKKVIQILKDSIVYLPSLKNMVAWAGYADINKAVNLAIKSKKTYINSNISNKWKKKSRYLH
As to the kind of experiment: cell-based or functional assay.

Where [10] appears, read: ref Withers-Martinez et al., 2002.

T3 sequence (A0A509AM03 257-574): as the sequence (A0A509AM03 257-574) above

In the case of `CC[C@H](C)[C@H](NC(=O)[C@H](CCCCN)NC(C)=O)C(=O)N[C@H](C(=O)N[C@@H](C)C(=O)N[C@@H](CCC(N)=O)C(=O)Nc1ccc2c(C)cc(=O)oc2c1)[C@@H](C)O` [Ac-KITAQ-AMC] (Ac-KITAQ-{AMC}), the “hydrolysis by rPfSUB1cat” value in [1] is recorded as “completely resistant to hydrolysis”.

Consider `CC[C@H](NC(=O)[C@H](C)NC(=O)[C@@H](NC(=O)[C@@H](NC(=O)[C@H](CCCCN)NC(C)=O)[C@@H](C)CC)[C@@H](C)O)C(=O)C(=O)NC1CC1` [KS-182] (Ac-KITA[Abu(ψCOCO)]-NHcPr), for which the Ki (as a rule, a dissociation constant, usually derived from enzyme kinetics or from competition with a known ligand) in [2] was 7.3 µM. For the same molecule, the IC50 (usually the midpoint of a concentration-inhibition curve) was ~6 µM and 6 µM in assay [2]; ~12 µM and 12 µM in assay [3]; at least 100 µM in [4].

Regarding `CC[C@H](C)[C@H](NC(=O)[C@H](CCCCN)NC(C)=O)C(=O)N[C@H](C(=O)N[C@@H](C)C(=O)NC(C)C(=O)C(=O)NCCC(=O)O)[C@@H](C)O` (stereo partly shown) [KS-466] (Ac-KITA[ξ3Amino2oxobutanoyl][βAla]-OH), in [2], the Ki was 0.7 µM; the IC50 was 1 µM and ~1 µM. In addition, the IC50 in [3] is 2 µM and ~2 µM.

Take `O=S(=O)(F)Cc1ccccc1` [PMSF, phenylmethylsulfonyl fluoride]: the “effect of PMSF on PfSUB1” value in assay [5] (setting [10]) was “unaffected”.

On to `O=C(O)c1cc[c]([Hg][OH])cc1` [pHMB, para-hydroxymercuribenzoate], for which the “inhibition of PfSUB1 by pHMB” value in assay [5] (setting [10]) is “potently inhibited”.

For “Ac-CITAQSDEEC (cysteine pairing not given here) [SERA4st1F-6R-S, 6-IATR-labelled fluorogenic substrate with P1′ Ser substitution of SERA4st1F-6R]”, the “fold increase in initial hydrolysis rate by rPbSUB1cat vs SERA4st1F-6R” value in assay [6] is recorded as 5.8 fold. Also, in assay [7], the “effect of P1′ Asp to Ser substitution (vs SERA4st1F-6R) on cleavage by rPfSUB1cat” value is “no significant effect”.

Take Ac-DVSGQ↓SENHQ [Ac-DVSGQ ↓ SENHQ]: the “cleavage by rPbSUB1 at the expected position” value (from here on “cleavage by rPbSUB1”) in [8] was “correctly cleaved”.

As to Ac-EIKAET, the “hydrolysis by rPfSUB1cat” value in assay [1] was “No hydrolysis”.

For “Ac-KITAQADAES [SERA4st1-ADA, SERA4st1 with P1′ and P3′ residues replaced by Ala]”, in assay [1], the “reduction of substrate peak intensity” value was around 1%. Further, in [1] (equimolar mixture of both peptides, SERA4st1 digested ⩽20%), the “initial cleavage rate, fold lower than that of parental SERA4st1” value is on record as “at least 80 fold”.

For the molecule “Ac-KITAQDDEES [SERA4st1, N-acetylated decapeptide based on a PfSUB1 processing site in SERA4]”, in assay [1], the “reduction of substrate peak intensity” value is on record as 84.6%.

For Ac-TTRAE↓SEEDI [Ac-TTRAE ↓ SEEDI], the “cleavage by rPbSUB1” value in [8] is “correctly cleaved”.

With Ac-TTSGQ↓SSTEP [Ac-TTSGQ ↓ SSTEP], the “cleavage by rPbSUB1” value in assay [8] is reported as “correctly cleaved”.

With Ac-VVTGE↓SEETS [Ac-VVTGE ↓ SEETS], in assay [8], the “cleavage by rPbSUB1” value is listed as “correctly cleaved”.

B1: PfSUB1 prodomain (PD) released by autocatalytic cleavage of rPfSUB1 (domain or fragment)
chain: KEVRSEENGKIQDDAKKIVSELRFLEKVEDVIEKSNIGGNEVDADENSFNPDTEVPIEEIEEIKMRELKDVKEEKNKNDNHNNNNNNNNISSSSSSSSNTFGEEKEEVSKKKKKLRLIVSENHATTPSFFQESLLEPDVLSFLESKGNLSNLKNINSMIIELKEDTTDDELISYIKILEEKGALIESDKLVS
For B1, in assay [9], the “initial rate of cleavage of fluorogenic substrate SERA4st1F-6R12 (0.1 uM) by rPfSUB1cat (prodomain largely degraded) against an equivalent mass of untreated rPfSUB1 (with its prodomain)” value was determined as 9.8 fold. Besides, in assay [5] (ref Jean et al., 2003), the “inhibitor potency against cognate enzyme” value was around 0.005 µM.

Source of the values: publication PMC3378952, “Plasmodium subtilisin-like protease 1 (SUB1): Insights into the active-site structure, specificity and function of a pan-malaria drug target” (International Journal for Parasitology, 2012).
